From patent publication US11434242B2, “Dopamine-b-hydroxylase inhibitors” (BIAL-PORTELA & Cª, S.A., priority 2017, dated 2022)

Target: T1, Dopamine beta hydroxylase (Homo sapiens, UniProt P09172)
T1 construct: 125 μl of plasma; tissue Instituto Português do Sangue Transplantação; host or cells: human plasma from healthy donors
T1 sequence (P09172 40-617 limits assumed): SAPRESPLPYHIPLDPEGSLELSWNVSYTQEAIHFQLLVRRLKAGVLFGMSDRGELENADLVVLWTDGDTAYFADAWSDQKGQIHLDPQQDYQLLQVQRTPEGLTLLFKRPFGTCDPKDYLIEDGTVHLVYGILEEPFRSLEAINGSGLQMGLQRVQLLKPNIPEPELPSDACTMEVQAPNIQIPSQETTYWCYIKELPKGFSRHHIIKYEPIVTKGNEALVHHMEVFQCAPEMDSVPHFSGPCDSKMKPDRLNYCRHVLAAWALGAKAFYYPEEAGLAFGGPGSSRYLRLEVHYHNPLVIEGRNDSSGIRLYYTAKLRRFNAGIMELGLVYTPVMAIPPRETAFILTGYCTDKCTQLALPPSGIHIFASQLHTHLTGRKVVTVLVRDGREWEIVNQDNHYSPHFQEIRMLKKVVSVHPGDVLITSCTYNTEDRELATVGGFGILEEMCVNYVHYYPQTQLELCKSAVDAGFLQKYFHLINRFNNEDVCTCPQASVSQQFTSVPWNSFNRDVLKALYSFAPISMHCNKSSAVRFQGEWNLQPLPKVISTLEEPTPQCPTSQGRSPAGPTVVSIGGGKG
Experiment: Dopamine beta hydroxylase activity in human plasma
Format: biochemical
Conditions: for Plasma (0.01 μM), activity in % of control: inhibitor 0.01 μM; for Plasma (0.1 μM), activity in % of control: inhibitor 0.1 μM
How it was run: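 Healthy-donor human plasma pre-incubated 10 min at 37° C with compound at final 10, 100 or 1000 nM in pH 5.0 acetate buffer with ascorbate, fumarate, pargyline, N-ethylmaleimide, catalase and copper sulfate. Tyramine substrate then added for 45 min; octopamine formed was isolated by SCX cartridge, periodate-converted and read at 330 nm; activity given as % control.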

| Plasma (0.01 μM), activity in % of control | Plasma (0.1 μM), activity in % of control | SMILES |
| --- | --- | --- |
| 94.3 % of control | 23.0 % of control | CN(C(=O)Cc1c2n(c(=S)n1C)C[C@@H](c1c(F)c(F)cc(F)c1F)C2)C1COC1 [Example 398, (R)—N-methyl-2-(2-methyl-6-(2,3,5,6-tetrafluorophenyl)-3-thioxo-2,5,6,7-tetrahydro-3H-pyrrolo[1,2-c]imidazol-1-yl)-N-(oxetan-3-yl)acetamide] |
| 40.6 % of control | 4.0 % of control | CN(C(=O)Cc1c2n(c(=S)n1C)C[C@H](c1c(F)ccc(Cl)c1F)C2)[C@@H]1CCOC1 [Example 399, 2-((S)-6-(3-chloro-2,6-difluorophenyl)-2-methyl-3-thioxo-2,5,6,7-tetrahydro-3H-pyrrolo[1,2-c]imidazol-1-yl)-N-methyl-N—((R)-tetrahydrofuran-3-yl)acetamide] |
| 31.9 % of control | 7.3 % of control | Cn1c(CC(=O)NC2COC2)c2n(c1=S)C[C@@]1(c3c(F)ccc(Cl)c3F)C[C@@H]21 [Example 400, 2-((5aS,6aR)-5a-(3-chloro-2,6-difluorophenyl)-2-methyl-3-thioxo-2,3,5,5a,6,6a-hexahydrocyclopropa[3,4]pyrrolo[1,2-c]imidazol-1-yl)-N-(oxetan-3-yl)acetamide] |
| 66.5 % of control | 35.2 % of control | O=C(Cc1[nH]c(=S)n2c1C[C@@H](c1c(F)ccc(Cl)c1F)C2)N[C@@H]1CCCOC1 [Example 401, 2-((S)-6-(3-chloro-2,6-difluorophenyl)-3-thioxo-2,5,6,7-tetrahydro-3H-pyrrolo[1,2-c]imidazol-1-yl)-N—((R)-tetrahydro-2H-pyran-3-yl)acetamide] |
| 59.6 % of control | 20.9 % of control | O=C(Cc1[nH]c(=S)n2c1C[C@@H](c1c(F)ccc(Br)c1F)C2)N[C@@H]1CCCOC1 [Example 402, 2-((S)-6-(3-bromo-2,6-difluorophenyl)-3-thioxo-2,5,6,7-tetrahydro-3H-pyrrolo[1,2-c]imidazol-1-yl)-N—((R)-tetrahydro-2H-pyran-3-yl)acetamide] |
| 78.7 % of control | 26.2 % of control | O=C(Cc1[nH]c(=S)n2c1C[C@@H](c1c(F)ccc(Cl)c1F)C2)N[C@H]1CCOC1 [Example 404, 2-((S)-6-(3-chloro-2,6-difluorophenyl)-3-thioxo-2,5,6,7-tetrahydro-3H-pyrrolo[1,2-c]imidazol-1-yl)-N—((S)-tetrahydrofuran-3-yl)acetamide] |

Continued, compound first:

| SMILES | Plasma (0.01 μM), activity in % of control | Plasma (0.1 μM), activity in % of control |
| --- | --- | --- |
| Cn1c(CC(=O)N[C@@H]2CCCOC2)c2n(c1=S)C[C@H](c1c(F)ccc(Br)c1F)C2 [Example 382, 2-((S)-6-(3-bromo-2,6-difluorophenyl)-2-methyl-3-thioxo-2,5,6,7-tetrahydro-3H-pyrrolo[1,2-c]imidazol-1-yl)-N—((R)-tetrahydro-2H-pyran-3-yl)acetamide] | 37.6 % of control | 6.0 % of control |
| CN(C(=O)Cc1c2n(c(=S)n1C)C[C@H](c1c(F)ccc(Cl)c1F)C2)C1CCOC1 (stereo partly drawn) [Example 383, 2-((S)-6-(3-chloro-2,6-difluorophenyl)-2-methyl-3-thioxo-2,5,6,7-tetrahydro-3H-pyrrolo[1,2-c]imidazol-1-yl)-N-methyl-N-(tetrahydrofuran-3-yl)acetamide] | 65.6 % of control | 14.8 % of control |
| CN(C(=O)Cc1[nH]c(=S)n2c1C[C@@H](c1c(F)ccc(Cl)c1F)C2)C1CCOC1 (stereo partly drawn) [Example 384, 2-((S)-6-(3-chloro-2,6-difluorophenyl)-3-thioxo-2,5,6,7-tetrahydro-3H-pyrrolo[1,2-c]imidazol-1-yl)-N-methyl-N-(tetrahydrofuran-3-yl)acetamide] | 104.5 % of control | 43.4 % of control |
| Cn1c(CC(=O)N[C@H]2CCOC2)c2n(c1=S)C[C@H](c1c(F)ccc(Cl)c1F)C2 [Example 385, 2-((S)-6-(3-chloro-2,6-difluorophenyl)-2-methyl-3-thioxo-2,5,6,7-tetrahydro-3H-pyrrolo[1,2-c]imidazol-1-yl)-N—((S)-tetrahydrofuran-3-yl)acetamide] | 68.1 % of control | 19.3 % of control |
| O=C(Cc1[nH]c(=S)n2c1C[C@H](c1c(F)c(F)cc(F)c1F)C2)N[C@@H]1CCCOC1 [Example 386, N—((R)-tetrahydro-2H-pyran-3-yl)-2-((R)-3-thioxo-6-(2,3,5,6-tetrafluorophenyl)-2,5,6,7-tetrahydro-3H-pyrrolo[1,2-c]imidazol-1-yl)acetamide] | 101.8 % of control | 79.4 % of control |
| CN1CCC(NC(=O)Cc2c3n(c(=S)n2C)C[C@@H](c2c(F)ccc(F)c2F)C3)C1=O (stereo partly drawn) [Example 388, N-(1-methyl-2-oxopyrrolidin-3-yl)-2-((R)-2-methyl-3-thioxo-6-(2,3,6-trifluorophenyl)-2,5,6,7-tetrahydro-3H-pyrrolo[1,2-c]imidazol-1-yl)acetamide] | 80.8 % of control | 71.1 % of control |
| CN1C[C@@H](NC(=O)Cc2c3n(c(=S)n2C)C[C@@H](c2c(F)ccc(F)c2F)C3)CC1=O [Example 389, 2-((R)-2-methyl-3-thioxo-6-(2,3,6-trifluorophenyl)-2,5,6,7-tetrahydro-3H-pyrrolo[1,2-c]imidazol-1-yl)-N—((S)-1-methyl-5-oxopyrrolidin-3-yl)acetamide] | 75.2 % of control | 33.1 % of control |
| Cn1c(CC(=O)N2CC[C@@H](C#N)C2)c2n(c1=S)C[C@@H](c1c(F)ccc(F)c1F)C2 [Example 390, (R)-1-(2-((R)-2-methyl-3-thioxo-6-(2,3,6-trifluorophenyl)-2,5,6,7-tetrahydro-3H-pyrrolo[1,2-c]imidazol-1-yl)acetyl)pyrrolidine-3-carbonitrile] | 75.0 % of control | 52.0 % of control |
| O=C(Cc1[nH]c(=S)n2c1[C@@H]1C[C@]1(c1c(F)ccc(Cl)c1F)C2)N[C@@H]1CCOC1 [Example 392, 2-((5aS,6aR)-5a-(3-chloro-2,6-difluorophenyl)-3-thioxo-2,3,5,5a,6,6a-hexahydrocyclopropa[3,4]pyrrolo[1,2-c]imidazol-1-yl)-N—((R)-tetrahydrofuran-3-yl)acetamide] | 62.3 % of control | 13.2 % of control |
| O=C(Cc1[nH]c(=S)n2c1C[C@H](c1c(F)c(F)cc(F)c1F)C2)NC1COC1 [Example 393, (R)—N-(oxetan-3-yl)-2-(6-(2,3,5,6-tetrafluorophenyl)-3-thioxo-2,5,6,7-tetrahydro-3H-pyrrolo[1,2-c]imidazol-1-yl)acetamide] | 90.6 % of control | 65.7 % of control |
| Cn1c(CC(=O)NC2COC2)c2n(c1=S)C[C@@H](c1c(F)c(F)cc(F)c1F)C2 [Example 394, (R)-2-(2-methyl-6-(2,3,5,6-tetrafluorophenyl)-3-thioxo-2,5,6,7-tetrahydro-3H-pyrrolo[1,2-c]imidazol-1-yl)-N-(oxetan-3-yl)acetamide] | 92.1 % of control | 47.6 % of control |
| O=C(Cc1[nH]c(=S)n2c1C[C@H](c1c(F)c(F)cc(F)c1F)C2)NC[C@@H]1CCCO1 [Example 395, 2-((R)-6-(2,3,5,6-tetrafluorophenyl)-3-thioxo-2,5,6,7-tetrahydro-3H-pyrrolo[1,2-c]imidazol-1-yl)-N—(((S)-tetrahydrofuran-2-yl)methyl)acetamide] | 96.9 % of control | 47.8 % of control |
| CN(C(=O)Cc1[nH]c(=S)n2c1[C@@H]1C[C@]1(c1c(F)ccc(Cl)c1F)C2)C1CCOC1 (stereo partly drawn) [Example 396, 2-((5aS,6aR)-5a-(3-chloro-2,6-difluorophenyl)-3-thioxo-2,3,5,5a,6,6a-hexahydrocyclopropa[3,4]pyrrolo[1,2-c]imidazol-1-yl)-N-methyl-N-(tetrahydrofuran-3-yl)acetamide] | 66.9 % of control | 10.8 % of control |
| Cn1c(CC(=O)NCC2CCOCC2)c2n(c1=S)C[C@@H](c1c(F)c(F)cc(F)c1F)C2 [Example 397, (R)-2-(2-methyl-6-(2,3,5,6-tetrafluorophenyl)-3-thioxo-2,5,6,7-tetrahydro-3H-pyrrolo[1,2-c]imidazol-1-yl)-N-((tetrahydro-2H-pyran-4-yl)methyl)acetamide] | 79.9 % of control | 24.1 % of control |
